{
  "source": "patent US20110118298A1",
  "about": "“COMPOSITIONS, KITS, AND METHODS FOR IDENTIFICATION, ASSESSMENT, PREVENTION, AND THERAPY OF CANCER” (INFINITY PHARMACEUTICALS, INC., priority 2009, published 2011)",
  "key": {"[1]": {"system": "non-small cell lung cancer (NSCLC)", "assay": "Phase II study of IPI-504 monotherapy in advanced NSCLC after EGFR TKI therapy: response and PFS", "assay_type": "in vivo, human", "description": "Patients with advanced NSCLC, prior treatment with EGFR TKIs, and tumor tissue available for molecular genotyping were enrolled in this prospective, non-randomized, multicenter, phase II study of IPI-504 monotherapy. The primary outcome was objective response rate. Secondary aims included safety, progression-free survival (PFS), and analysis of activity by molecular subtypes.\nEach genotype-defined arm of the trial (mutant EGFR cohort or wild-type EGFR cohort) functioned as a Simon two-stage study with planned interim evaluation after 10 patients and expanded enrollment of an additional 19 patients (a total of 29 patients) if there was at least one patient with a complete response (CR), partial response (PR) or stable disease (SD) lasting 3 months. As pre-defined EGFR genotype was not a requirement at study entry, the trial remained open until both cohorts fully enrolled, which led to over-enrollment of the wild-type arm. Secondary aims included describing the safety and progression-free survival (PFS) of the regimen, and examining molecular markers associated with response.\nPatients were recruited between December 2007 and May 2009 from ten US cancer centers. To be eligible, patients had to have stage IIIB (with pleural effusion), or stage 1V NSCLC with progression on EGFR TKI therapy at some point in their history; adequate baseline renal, hepatic, and bone marrow function; Eastern Cooperative Oncology Group performance status (PS) of 0-2; measurable disease by RECIST 1.0; no active or untreated central nervous system (brain) metastases; no significant cardiac conduction abnormalities; no ongoing keratoconjunctivitis; and either previously defined EGFR genotype or sufficient tumor tissue to undergo genotype assessment, for example, EGFR mutation analysis (EGFR status not required for study entry) (Therasse, P. et al. (2000) J Natl Cancer Inst 92, 205-216; Oken, M. M. et al. (1982) Am J Clin Oncol. 5:649-655). Patients had experienced prior EGFR TKI therapy and there was no limit on prior therapies. All patients signed a written informed consent and the study was monitored by all local institutional review boards. Funding for the trial was provided by Infinity Pharmaceuticals, Inc.\nTreatment consisted of a 30-minute infusion of intravenous IPI-504 on days 1, 4, 8 and 11 of a 21-day cycle. Therapy continued until progressive disease (PD), intolerable side effects, or elective withdrawal. A total of 76 patients were enrolled. The starting dose was 400 mg/m^2 for 75 patients. In April 2009, the dose for patients who were on study (19 patients) was lowered to 225 mg/m^2, due to hepatotoxicities observed at the 400 mg/m^2 dose in a separate trial of IPI-504 in patients with gastrointestinal stromal tumors (GIST) (Demetri G. D. et al. Final results from a phase III study of IPI-504 (retaspimycin hydrochloride) versus placebo in patients with gastrointestinal stromal tumors (GIST) following failure of kinase inhibitor therapies. Paper presented at: Gastrointestinal Cancers Symposium; Jan. 22-24, 2010, 2010; Orlando, Fla.), and the last enrolled patient started at a dose of 225 mg/m^2.\nAll patients were assessed for safety by history, physical examination, blood chemistries, liver function tests and blood counts, at baseline and prior to each infusion. Amylase and lipase were assessed if there were symptoms of pancreatitis. Adverse events were graded using the NCl common toxicity criteria version 3.0 (NCl. Common terminology criteria for adverse events (CTCAE) version 3.0 Aug. 9, 2006). Slit lamp eye examinations were performed during screening and electrocardiograms were obtained during screening and before and after the first infusion, to evaluate for keratitis and QTc prolongation, respectively. Radiographic evaluation of tumor response by CT-scan was performed after every 2 cycles. All films were reviewed and independently assessed by a central radiology core laboratory. […]"}, "[2]": {"system": "HCT-116 (G13D mutant KRAS) xenograft", "assay": "HCT-116 xenograft, 17-AG, Irinotecan and combination", "assay_type": "in vivo, nude mice", "conditions": "single agents 100 mg/kg", "description": "In the seventh set of studies, subcutaneous xenografts of HCT-116 (G13D mutant KRAS) colorectal tumor model were established by implantation of 10×10^6 cells into the right flank of nude mice. Once tumors reached approximately 100-150 mm^3, animals were randomized into treatment groups and administered either vehicle or a suspension of 50% 17-AG in HPMC-AS-HG dispersion in vehicle (1% hydroxyethylcellulose, 5% glycerol) (100 mg/kg, M-W-F, 3 weeks), Irinotecan (100 mg/kg, Q7D, 3 weeks) or the combination of a suspension of 50% 17-AG in HPMC-AS-HG dispersion in vehicle (1% hydroxyethylcellulose, 5% glycerol) (50 mg/kg, M-W-F) and Irinotecan (75 mg/kg, Q7D) for three weeks, and tumor volume measured twice per week (FIG. 27A; FIG. 27B is a zoomed-in section of FIG. 27A). At the end of the dosing period, animals were monitored for an additional 21 days to follow tumor growth delay."}},
  "note": "Counter-ions that a name gives are not always drawn. Marks after values point to notes of the source that are not given here.",
  "data": [
    {"smiles": "C=CCNc1c(O)cc2c(O)c1C[C@@H](C)C[C@H](OC)[C@H](O)[C@@H](C)/C=C(\\C)[C@H](OC(N)=O)[C@@H](OC)/C=C\\C=C(/C)C(=O)N2", "note": "[IPI-504, retaspimycin hydrochloride]", "values": [
      {"measurement": "time on IPI-504 without progression or death", "setting": "[1]; 3 patients with ALK rearrangements", "value": "approximately 7 months"},
      {"measurement": "RECIST Stable Disease or better for at least 3 months", "setting": "[1]; ALK No Rearrangement Detected", "value": "3 (25) n [%]"},
      {"measurement": "Objective Response Rate (All PRs)", "setting": "[1]; ALK No Rearrangement Detected, 12 patients", "value": "1 (8) n [%]"},
      {"measurement": "Median PFS", "setting": "[1]; ALK No Rearrangement Detected, no unit in table", "value": 2.43},
      {"measurement": "RECIST Stable Disease or better for at least 3 months", "setting": "[1]; ALK Rearrangement Detected", "value": "3 (100) n [%]"},
      {"measurement": "Objective Response Rate (All PRs)", "setting": "[1]; ALK Rearrangement Detected, 3 patients", "value": "2 (67) n [%]"},
      {"measurement": "RECIST Stable Disease or better for at least 3 months", "setting": "[1]; EGFR Mutant", "value": "6 (21) n [%]"},
      {"measurement": "Objective Response Rate (All PRs)", "setting": "[1]; EGFR Mutant, 28 patients", "value": "1 (4) n [%]"},
      {"measurement": "Median PFS", "setting": "[1]; EGFR Mutant, no unit in table", "value": 2.76},
      {"measurement": "RECIST Stable Disease or better for at least 3 months", "setting": "[1]; EGFR Wild Type", "value": "10 (25) n [%]"},
      {"measurement": "Objective Response Rate (All PRs)", "setting": "[1]; EGFR Wild Type, 40 patients", "value": "4 (10) n [%]"},
      {"measurement": "Median PFS", "setting": "[1]; EGFR Wild Type, no unit in table", "value": 2.86},
      {"measurement": "response rate", "setting": "[1]; EGFR wild-type patients", "value": 10, "unit": "%"},
      {"measurement": "RECIST Stable Disease or better for at least 3 months", "setting": "[1]; KRAS Mutant", "value": "5 (42) n [%]"},
      {"measurement": "Objective Response Rate (All PRs)", "setting": "[1]; KRAS Mutant, 12 patients", "value": "0 (0) n [%]"},
      {"measurement": "Median PFS", "setting": "[1]; KRAS Mutant, no unit in table", "value": 3.91},
      {"measurement": "RECIST Stable Disease or better for at least 3 months", "setting": "[1]; KRAS Wild Type", "value": "4 (15) n [%]"},
      {"measurement": "Objective Response Rate (All PRs)", "setting": "[1]; KRAS Wild Type, 26 patients", "value": "3 (12)* n [%]"},
      {"measurement": "Median PFS", "setting": "[1]; KRAS Wild Type, no unit in table", "value": 2.86},
      {"measurement": "response rate", "setting": "[1]; KRAS wild-type patients", "value": 12, "unit": "%"},
      {"measurement": "Objective Response Rate (All PRs)", "setting": "[1]; Total, 76 patients", "value": "5 (7) n [%]"},
      {"measurement": "RECIST Stable Disease or better for at least 3 months", "setting": "[1]; Total, 76 patients", "value": "18 (24) n [%]"},
      {"measurement": "Median PFS", "setting": "[1]; Total, no unit in table, months", "value": 2.86},
      {"measurement": "Median PFS", "setting": "[1]; all patients", "value": 2.86, "unit": "months"},
      {"measurement": "patients with partial response", "setting": "[1]; of the 3 patients with an ALK gene rearrangement", "value": 2, "unit": "patients"},
      {"measurement": "overall response rate", "setting": "[1]; overall study population", "value": 7, "unit": "%"},
      {"measurement": "response rate", "setting": "[1]; patients with EGFR mutations", "value": 4, "unit": "%"},
      {"measurement": "response rate", "setting": "[1]; patients with an ALK rearrangement", "value": 67, "unit": "%"},
      {"measurement": "reduction in tumor size", "setting": "[1]; third patient with ALK rearrangement (stable disease)", "value": 24, "unit": "%"}
    ]},
    {"smiles": "CO[C@H]1/C=C\\C=C(/C)C(=O)NC2=CC(=O)C(N)=C(C[C@@H](C)C[C@H](OC)[C@H](O)[C@@H](C)/C=C(\\C)[C@@H]1OC(N)=O)C2=O", "note": "[IPI-493, 17-AG]", "values": [
      {"measurement": "average tumor growth inhibition while on drug", "setting": "[2]; combination 17-AG 50 mg/kg M-W-F + Irinotecan 75 mg/kg Q7D", "value": "~75", "unit": "%"},
      {"measurement": "delay in tumor progression in re-growth phase", "setting": "[2]; combination 50 + 75 mg/kg", "value": "no delay in tumor progression"}
    ]}
  ]
}
